Assay results as given in patent publication US11945822B2, “Pyrazolo-triazine and/or pyrazolo-pxrimidine derivatives as selective inhibitor of cyclin dependent kinase” (QURIENT CO., LTD., priority 2018, dated 2024).
pIC50: −log10 of the molar value.

Target: T1, CDK7/Cyclin H/MNAT1 (Homo sapiens, UniProt P50613)
T1 construct: purchased Invitrogen PR6749B
Experiment: Enzymatic assay for CDK7 (FRET based LANCE Ultra kinase assay)
Assay type: biochemical
Details: CDK7 over CDK1
In short: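 Inhibition was measured at Km ATP by time-resolved FRET between a Eu anti-phospho antibody and a phosphorylated ULight peptide. The enzyme was the purified CDK7/cyclin complex, and data were curve-fitted.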

T1 sequence (P50613 whole entry): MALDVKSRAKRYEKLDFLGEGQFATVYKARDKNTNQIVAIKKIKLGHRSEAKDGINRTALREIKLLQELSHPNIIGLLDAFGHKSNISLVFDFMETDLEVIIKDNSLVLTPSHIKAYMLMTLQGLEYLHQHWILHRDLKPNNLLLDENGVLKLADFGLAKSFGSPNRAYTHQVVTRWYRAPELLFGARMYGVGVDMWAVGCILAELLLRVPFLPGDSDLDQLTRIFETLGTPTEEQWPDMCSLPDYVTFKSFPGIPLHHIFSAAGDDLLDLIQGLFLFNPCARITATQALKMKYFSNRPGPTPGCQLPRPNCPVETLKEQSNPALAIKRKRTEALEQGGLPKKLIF
T1 sequence (P51946 whole entry partner): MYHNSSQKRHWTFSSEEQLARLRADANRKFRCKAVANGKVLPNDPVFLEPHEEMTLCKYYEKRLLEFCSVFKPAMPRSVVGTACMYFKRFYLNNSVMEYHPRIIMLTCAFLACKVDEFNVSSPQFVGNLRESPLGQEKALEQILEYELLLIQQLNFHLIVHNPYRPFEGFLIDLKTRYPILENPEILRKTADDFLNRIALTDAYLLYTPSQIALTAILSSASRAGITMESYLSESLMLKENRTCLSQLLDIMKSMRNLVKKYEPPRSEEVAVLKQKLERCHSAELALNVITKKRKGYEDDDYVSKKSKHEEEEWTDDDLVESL
T1 sequence (P51948 whole entry partner): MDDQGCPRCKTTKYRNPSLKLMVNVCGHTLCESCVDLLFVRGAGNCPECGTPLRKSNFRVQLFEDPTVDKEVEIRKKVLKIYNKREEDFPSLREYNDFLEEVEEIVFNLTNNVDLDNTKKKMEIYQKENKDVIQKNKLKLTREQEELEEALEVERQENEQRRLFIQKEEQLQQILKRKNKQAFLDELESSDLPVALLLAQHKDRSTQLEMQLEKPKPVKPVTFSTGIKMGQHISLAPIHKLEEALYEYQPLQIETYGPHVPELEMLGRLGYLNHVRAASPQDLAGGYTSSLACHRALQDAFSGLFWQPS

| CDK1/CDK7: Selectivity of CDK7 inhibition over CDK1 inhibition | SMILES |
| --- | --- |
| A (A=greater than 200 fold) | CC(=O)N(C)c1ccccc1CNc1nc(N2CCC(N)CC2)nc2c(C(C)C)cnn12 [Compound 64] |
| A (A=greater than 200 fold) | CC(C)c1cnn2c(NCc3cccc(NC(=O)c4cccc(NC(=O)CCCN(C)C)c4)c3)nc(N3CCC(N)CC3)nc12 [Compound 70] |
| A (A=greater than 200 fold) | Cc1ccc(-n2cccn2)cc1CNc1nc(N2CCC(N)CC2)nc2c(C(C)C)cnn12 [Compound 75] |
| A (A=greater than 200 fold) | CC(C)c1cnn2c(NCc3ccccc3-n3cccn3)nc(-c3ccc(Cl)c(OC4CCNCC4)c3)nc12 [Compound 173] |

| SMILES | CDK1/CDK7: Selectivity of CDK7 inhibition over CDK1 inhibition |
| --- | --- |
| CC(C)c1cnn2c(NCc3ccsc3-n3cccn3)nc(N3CCC(N)CC3)nc12 [Compound 62] | B (B=less than 200 fold, but greater than 20 fold) |
| CC(C)c1cnn2c(NCc3ccccc3Oc3ccc4ccccc4n3)nc(N3CCC(N)CC3)nc12 [Compound 74] | B (B=less than 200 fold, but greater than 20 fold) |

Same assay, conditions: CDK7 over CDK2

| SMILES | CDK2/CDK7: Selectivity of CDK7 inhibition over CDK2 inhibition |
| --- | --- |
| CC(C)c1cnn2c(NCc3ccsc3-n3cccn3)nc(N3CCC(N)CC3)nc12 [Compound 62] | B (B=less than 200 fold, but greater than 20 fold) |
| CC(=O)N(C)c1ccccc1CNc1nc(N2CCC(N)CC2)nc2c(C(C)C)cnn12 [Compound 64] | A (A=greater than 200 fold) |
| CC(C)c1cnn2c(NCc3cccc(NC(=O)c4cccc(NC(=O)CCCN(C)C)c4)c3)nc(N3CCC(N)CC3)nc12 [Compound 70] | B (B=less than 200 fold, but greater than 20 fold) |
| CC(C)c1cnn2c(NCc3ccccc3Oc3ccc4ccccc4n3)nc(N3CCC(N)CC3)nc12 [Compound 74] | B (B=less than 200 fold, but greater than 20 fold) |
| Cc1ccc(-n2cccn2)cc1CNc1nc(N2CCC(N)CC2)nc2c(C(C)C)cnn12 [Compound 75] | B (B=less than 200 fold, but greater than 20 fold) |
| CC(C)c1cnn2c(NCc3ccccc3-n3cccn3)nc(-c3ccc(Cl)c(OC4CCNCC4)c3)nc12 [Compound 173] | B (B=less than 200 fold, but greater than 20 fold) |

Same assay, conditions: CDK7 over CDK5

| SMILES | CDK5/CDK7: Selectivity of CDK7 inhibition over CDK5 inhibition |
| --- | --- |
| CC(C)c1cnn2c(NCc3ccsc3-n3cccn3)nc(N3CCC(N)CC3)nc12 [Compound 62] | C (C=less than 20 fold) |
| CC(=O)N(C)c1ccccc1CNc1nc(N2CCC(N)CC2)nc2c(C(C)C)cnn12 [Compound 64] | B (B=less than 200 fold, but greater than 20 fold) |
| CC(C)c1cnn2c(NCc3cccc(NC(=O)c4cccc(NC(=O)CCCN(C)C)c4)c3)nc(N3CCC(N)CC3)nc12 [Compound 70] | B (B=less than 200 fold, but greater than 20 fold) |
| CC(C)c1cnn2c(NCc3ccccc3Oc3ccc4ccccc4n3)nc(N3CCC(N)CC3)nc12 [Compound 74] | B (B=less than 200 fold, but greater than 20 fold) |
| Cc1ccc(-n2cccn2)cc1CNc1nc(N2CCC(N)CC2)nc2c(C(C)C)cnn12 [Compound 75] | B (B=less than 200 fold, but greater than 20 fold) |
| CC(C)c1cnn2c(NCc3ccccc3-n3cccn3)nc(-c3ccc(Cl)c(OC4CCNCC4)c3)nc12 [Compound 173] | B (B=less than 200 fold, but greater than 20 fold) |

Same assay, conditions: read-out: CDK7 enzymatic activity (IC50 range)

| pIC50 | SMILES |
| --- | --- |
| > 7.00 | CC(C)c1cnn2c(NCc3ccsc3-n3cccn3)nc(N3CCC(N)CC3)nc12 [Compound 62] |
| > 7.00 | CC(=O)N(C)c1ccccc1CNc1nc(N2CCC(N)CC2)nc2c(C(C)C)cnn12 [Compound 64] |
| > 7.00 | CC(C)c1cnn2c(NCc3cccc(NC(=O)c4cccc(NC(=O)CCCN(C)C)c4)c3)nc(N3CCC(N)CC3)nc12 [Compound 70] |
| > 7.00 | CC(C)c1cnn2c(NCc3ccccc3Oc3ccc4ccccc4n3)nc(N3CCC(N)CC3)nc12 [Compound 74] |
| > 7.00 | Cc1ccc(-n2cccn2)cc1CNc1nc(N2CCC(N)CC2)nc2c(C(C)C)cnn12 [Compound 75] |
| > 7.00 | CC(C)c1cnn2c(NCc3ccccc3-n3cccn3)nc(-c3ccc(Cl)c(OC4CCNCC4)c3)nc12 [Compound 173] |

Target: T2, CDK2/Cyclin A (Homo sapiens, UniProt P24941)
T2 construct: purchased Invitrogen PV6290
Experiment: Enzymatic assay for CDK2 (FRET based LANCE Ultra kinase assay)
Assay type: biochemical
Details: read-out: CDK2 enzymatic activity (IC50 range)
In short: (§1)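 LANCE Ultra TR-FRET: ULight-MBP peptide (68 nM) with ATP at Km, […], 60 min at 23° C. EDTA plus Eu-anti-phospho-MBP added, another 60 min, then 665/615 nm emission read. Compounds tested as 8-dose 4-fold DMSO dilutions.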

| pIC50 | SMILES |
| --- | --- |
| 6.00 to 7.00 | CC(C)c1cnn2c(NCc3ccsc3-n3cccn3)nc(N3CCC(N)CC3)nc12 [Compound 62] |
| < 6.00 | CC(=O)N(C)c1ccccc1CNc1nc(N2CCC(N)CC2)nc2c(C(C)C)cnn12 [Compound 64] |
| 6.00 to 7.00 | CC(C)c1cnn2c(NCc3cccc(NC(=O)c4cccc(NC(=O)CCCN(C)C)c4)c3)nc(N3CCC(N)CC3)nc12 [Compound 70] |
| < 6.00 | CC(C)c1cnn2c(NCc3ccccc3Oc3ccc4ccccc4n3)nc(N3CCC(N)CC3)nc12 [Compound 74] |
| < 6.00 | Cc1ccc(-n2cccn2)cc1CNc1nc(N2CCC(N)CC2)nc2c(C(C)C)cnn12 [Compound 75] |
| < 6.00 | CC(C)c1cnn2c(NCc3ccccc3-n3cccn3)nc(-c3ccc(Cl)c(OC4CCNCC4)c3)nc12 [Compound 173] |

Tested on: MOLT-4
Experiment: Cellular MOLT-4 viability assay (CellTiter-Glo, 72 hours)
Assay type: cell-based
Details: Homo sapiens, MOLT4 viability assay
Procedure: All cell lines were routinely tested for mycoplasma.
The effect of the CDK7 inhibitor to inhibit the growth of target cancer cells was evaluated through the 72 hours time period of viability assay. Briefly, the candidate cell line ware plated in 96 well plate at the following density of cells respectively. […] DMSO solvent without compound served as a control and final DMSO concentration less than 0.1%. After 72 hours of incubation at 37° C., 5% CO2 incubator, cells were analyzed for the viability using the CellTiter-Glo Luminescent Cell Viability Assay (Promega, Cat #G7570). All viability assays were performed in duplicate and Luminescence was read using an Envision (Perkin Elmer, USA). Data was analyzed using XLfit software.

| pIC50 | SMILES |
| --- | --- |
| 5.00 to 6.00 | CC(C)c1cnn2c(NCc3ccccc3NC3CCN(C)CC3)nc(N3CCC(N)CC3)nc12 [Compound 49] |
| 5.00 to 6.00 | CC(C)c1cnn2c(NCc3cccc(NC(=O)c4ccccc4)c3)nc(N3CCC(N)CC3)nc12 [Compound 50] |
| 5.00 to 6.00 | CC(C)c1cnn2c(NCc3ccsc3-n3cccn3)nc(N3CCC(N)CC3)nc12 [Compound 62] |
| < 5.00 | CC(=O)N(C)c1ccccc1CNc1nc(N2CCC(N)CC2)nc2c(C(C)C)cnn12 [Compound 64] |
| < 5.00 | CC(C)c1cnn2c(NCc3cccc(NC(=O)c4cccc(NC(=O)CCCN(C)C)c4)c3)nc(N3CCC(N)CC3)nc12 [Compound 70] |
| < 5.00 | CC(C)c1cnn2c(NCc3ccccc3Oc3ccc4ccccc4n3)nc(N3CCC(N)CC3)nc12 [Compound 74] |
| 5.00 to 6.00 | Cc1ccc(-n2cccn2)cc1CNc1nc(N2CCC(N)CC2)nc2c(C(C)C)cnn12 [Compound 75] |
| 5.00 to 6.00 | CC(C)c1cnn2c(NCc3ccccc3-n3cccn3)nc(-c3ccc(Cl)c(OC4CCNCC4)c3)nc12 [Compound 173] |

| SMILES | pIC50 |
| --- | --- |
| CC(C)c1cnn2c(NCc3ccccc3N(C)C3CCN(C)CC3)nc(N3CCC(N)CC3)nc12 [Compound 53] | 5.00 to 6.00 |

Target: T3, CDK5/p25 (Homo sapiens, UniProt Q00535)
T3 construct: purchased Invitrogen PR8543B
Experiment: Enzymatic assay for CDK5 (FRET based LANCE Ultra kinase assay)
Assay type: biochemical
Details: read-out: CDK5 enzymatic activity (IC50 range)
In short: as §1

T3 sequence (Q00535 whole entry): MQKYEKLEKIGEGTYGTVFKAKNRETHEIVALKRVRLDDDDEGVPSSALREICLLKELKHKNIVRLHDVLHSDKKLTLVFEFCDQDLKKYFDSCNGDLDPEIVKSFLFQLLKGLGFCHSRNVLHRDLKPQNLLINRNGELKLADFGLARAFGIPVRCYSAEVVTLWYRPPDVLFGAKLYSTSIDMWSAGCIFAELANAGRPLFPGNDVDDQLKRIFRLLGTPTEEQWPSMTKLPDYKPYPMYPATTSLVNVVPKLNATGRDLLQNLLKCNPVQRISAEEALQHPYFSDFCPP
T3 sequence (Q15078 99-307 partner limits assumed): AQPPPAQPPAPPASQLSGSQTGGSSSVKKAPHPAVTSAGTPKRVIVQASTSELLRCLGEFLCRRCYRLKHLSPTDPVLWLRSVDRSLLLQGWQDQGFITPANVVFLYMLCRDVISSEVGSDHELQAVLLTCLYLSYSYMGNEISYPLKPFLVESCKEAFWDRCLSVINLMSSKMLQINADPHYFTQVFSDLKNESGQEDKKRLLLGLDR

| pIC50 | SMILES |
| --- | --- |
| > 7.00 | CC(C)c1cnn2c(NCc3ccsc3-n3cccn3)nc(N3CCC(N)CC3)nc12 [Compound 62] |
| 6.00 to 7.00 | CC(=O)N(C)c1ccccc1CNc1nc(N2CCC(N)CC2)nc2c(C(C)C)cnn12 [Compound 64] |
| 6.00 to 7.00 | CC(C)c1cnn2c(NCc3cccc(NC(=O)c4cccc(NC(=O)CCCN(C)C)c4)c3)nc(N3CCC(N)CC3)nc12 [Compound 70] |
| 6.00 to 7.00 | CC(C)c1cnn2c(NCc3ccccc3Oc3ccc4ccccc4n3)nc(N3CCC(N)CC3)nc12 [Compound 74] |
| 6.00 to 7.00 | Cc1ccc(-n2cccn2)cc1CNc1nc(N2CCC(N)CC2)nc2c(C(C)C)cnn12 [Compound 75] |
| 6.00 to 7.00 | CC(C)c1cnn2c(NCc3ccccc3-n3cccn3)nc(-c3ccc(Cl)c(OC4CCNCC4)c3)nc12 [Compound 173] |

Target: T4, CDK1/Cyclin B (Homo sapiens, UniProt P06493)
T4 construct: purchased Invitrogen PR4768C
Experiment: Enzymatic assay for CDK1 (FRET based LANCE Ultra kinase assay)
Assay type: biochemical
Details: read-out: CDK1 enzymatic activity (IC50 range)
In short: as §1

T4 sequence (P06493 whole entry): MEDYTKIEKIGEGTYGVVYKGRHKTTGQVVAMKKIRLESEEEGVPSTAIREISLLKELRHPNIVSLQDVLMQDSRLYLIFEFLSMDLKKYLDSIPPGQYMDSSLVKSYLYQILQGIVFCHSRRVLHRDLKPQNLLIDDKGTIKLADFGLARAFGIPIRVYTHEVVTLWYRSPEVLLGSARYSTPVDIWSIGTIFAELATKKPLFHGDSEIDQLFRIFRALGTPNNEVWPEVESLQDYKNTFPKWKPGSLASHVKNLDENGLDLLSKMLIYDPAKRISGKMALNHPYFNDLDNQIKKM
T4 sequence (P14635 whole entry partner): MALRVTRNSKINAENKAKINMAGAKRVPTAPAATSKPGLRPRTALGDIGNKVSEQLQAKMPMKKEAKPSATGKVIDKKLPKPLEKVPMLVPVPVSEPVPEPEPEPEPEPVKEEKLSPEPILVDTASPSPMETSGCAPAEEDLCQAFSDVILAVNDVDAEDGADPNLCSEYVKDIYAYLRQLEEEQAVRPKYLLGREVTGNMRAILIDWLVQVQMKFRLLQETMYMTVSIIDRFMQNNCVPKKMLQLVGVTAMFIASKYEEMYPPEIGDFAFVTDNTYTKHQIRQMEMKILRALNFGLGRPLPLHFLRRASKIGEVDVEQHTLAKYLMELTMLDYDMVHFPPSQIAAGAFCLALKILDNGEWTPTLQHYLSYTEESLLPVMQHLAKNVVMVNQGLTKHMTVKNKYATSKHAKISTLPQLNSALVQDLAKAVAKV

| pIC50 | SMILES |
| --- | --- |
| 6.00 to 7.00 | CC(C)c1cnn2c(NCc3ccsc3-n3cccn3)nc(N3CCC(N)CC3)nc12 [Compound 62] |
| < 6.00 | CC(=O)N(C)c1ccccc1CNc1nc(N2CCC(N)CC2)nc2c(C(C)C)cnn12 [Compound 64] |
| < 6.00 | CC(C)c1cnn2c(NCc3cccc(NC(=O)c4cccc(NC(=O)CCCN(C)C)c4)c3)nc(N3CCC(N)CC3)nc12 [Compound 70] |
| < 6.00 | CC(C)c1cnn2c(NCc3ccccc3Oc3ccc4ccccc4n3)nc(N3CCC(N)CC3)nc12 [Compound 74] |
| < 6.00 | Cc1ccc(-n2cccn2)cc1CNc1nc(N2CCC(N)CC2)nc2c(C(C)C)cnn12 [Compound 75] |
| < 6.00 | CC(C)c1cnn2c(NCc3ccccc3-n3cccn3)nc(-c3ccc(Cl)c(OC4CCNCC4)c3)nc12 [Compound 173] |

Tested on: MV4-11
Experiment: Cellular MV4-11 viability assay (CellTiter-Glo, 72 hours)
Assay type: cell-based
Details: Homo sapiens
In short: (§2)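 CellTiter-Glo luminescence read in duplicate after 72 h compound exposure (37 °C, 5% CO2); DMSO-only control, final DMSO under 0.1%.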

| pIC50 | SMILES |
| --- | --- |
| > 6.00 | CC(=O)N(C)c1ccccc1CNc1nc(N2CCC(N)CC2)nc2c(C(C)C)cnn12 [Compound 64] |

Tested on: H460
Experiment: Cellular H460 viability assay (CellTiter-Glo, 72 hours)
Assay type: cell-based
Details: Homo sapiens, NCI-H460
In short: as §2

| pIC50 | SMILES |
| --- | --- |
| 5.00 to 6.00 | CC(C)c1cnn2c(NCc3ccccc3NC3CCN(C)CC3)nc(N3CCC(N)CC3)nc12 [Compound 49] |
| > 6.00 | CC(C)c1cnn2c(NCc3cccc(NC(=O)c4ccccc4)c3)nc(N3CCC(N)CC3)nc12 [Compound 50] |
| > 6.00 | CC(C)c1cnn2c(NCc3ccsc3-n3cccn3)nc(N3CCC(N)CC3)nc12 [Compound 62] |
| > 6.00 | CC(=O)N(C)c1ccccc1CNc1nc(N2CCC(N)CC2)nc2c(C(C)C)cnn12 [Compound 64] |
| 5.00 to 6.00 | CC(C)c1cnn2c(NCc3cccc(NC(=O)c4cccc(NC(=O)CCCN(C)C)c4)c3)nc(N3CCC(N)CC3)nc12 [Compound 70] |
| 5.00 to 6.00 | CC(C)c1cnn2c(NCc3ccccc3Oc3ccc4ccccc4n3)nc(N3CCC(N)CC3)nc12 [Compound 74] |
| 5.00 to 6.00 | Cc1ccc(-n2cccn2)cc1CNc1nc(N2CCC(N)CC2)nc2c(C(C)C)cnn12 [Compound 75] |
| 5.00 to 6.00 | CC(C)c1cnn2c(NCc3ccccc3-n3cccn3)nc(-c3ccc(Cl)c(OC4CCNCC4)c3)nc12 [Compound 173] |

| SMILES | pIC50 |
| --- | --- |
| CC(C)c1cnn2c(NCc3ccccc3N(C)C3CCN(C)CC3)nc(N3CCC(N)CC3)nc12 [Compound 53] | > 6.00 |

Tested on: HCT116
Experiment: Cellular HCT116 viability assay (CellTiter-Glo, 72 hours)
Assay type: cell-based
Details: Homo sapiens, HCT-116
In short: as §2

| pIC50 | SMILES |
| --- | --- |
| 5.00 to 6.00 | CC(C)c1cnn2c(NCc3ccccc3NC3CCN(C)CC3)nc(N3CCC(N)CC3)nc12 [Compound 49] |
| 5.00 to 6.00 | CC(C)c1cnn2c(NCc3cccc(NC(=O)c4ccccc4)c3)nc(N3CCC(N)CC3)nc12 [Compound 50] |

| SMILES | pIC50 |
| --- | --- |
| CC(C)c1cnn2c(NCc3ccccc3N(C)C3CCN(C)CC3)nc(N3CCC(N)CC3)nc12 [Compound 53] | 5.00 to 6.00 |
